Laboratory results: ChEMBL document CHEMBL4406811, “Optimization and Mechanistic Characterization of Pyridopyrimidine Inhibitors of Bacterial Biotin Carboxylase” (J Med Chem, 2019)

Key:
[1] = target: T1, CHEK1 (Homo sapiens, UniProt O14757); test: Inhibition of recombinant human full-length His-tagged CHEK1 expressed in baculovirus expression system at 25 uM using FRET-labeled Ser/Thr 19 peptide as substrate measured after 1 hr by Z'-lyte assay relative to control; settings: probe FRET-labeled Ser/Thr 19 peptide
T1 sequence (O14757 whole entry): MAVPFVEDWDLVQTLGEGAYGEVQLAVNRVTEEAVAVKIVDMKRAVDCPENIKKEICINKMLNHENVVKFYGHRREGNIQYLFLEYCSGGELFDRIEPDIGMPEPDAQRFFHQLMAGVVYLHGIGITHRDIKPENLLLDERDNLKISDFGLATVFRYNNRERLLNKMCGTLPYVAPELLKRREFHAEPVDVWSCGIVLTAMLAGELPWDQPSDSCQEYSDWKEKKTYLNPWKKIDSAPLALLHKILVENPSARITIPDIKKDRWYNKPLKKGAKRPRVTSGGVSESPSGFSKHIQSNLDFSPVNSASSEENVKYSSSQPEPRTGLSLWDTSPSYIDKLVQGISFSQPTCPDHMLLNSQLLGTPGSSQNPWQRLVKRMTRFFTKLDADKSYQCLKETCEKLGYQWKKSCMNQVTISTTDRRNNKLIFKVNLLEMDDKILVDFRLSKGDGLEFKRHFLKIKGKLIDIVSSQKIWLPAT

[2] = target: PAK4 (Homo sapiens, UniProt O96013); test: Inhibition of recombinant human GST-tagged PAK4 catalytic domain (295 to 591 residues) expressed in baculovirus expression system at 25 uM using FRET-labeled Ser/Thr 20 peptide as substrate measured after 1 hr by Z'-lyte assay relative to control; settings: probe FRET-labeled Ser/Thr 20 peptide
Sequence of PAK4 (O96013 whole entry, the tested form may be a part): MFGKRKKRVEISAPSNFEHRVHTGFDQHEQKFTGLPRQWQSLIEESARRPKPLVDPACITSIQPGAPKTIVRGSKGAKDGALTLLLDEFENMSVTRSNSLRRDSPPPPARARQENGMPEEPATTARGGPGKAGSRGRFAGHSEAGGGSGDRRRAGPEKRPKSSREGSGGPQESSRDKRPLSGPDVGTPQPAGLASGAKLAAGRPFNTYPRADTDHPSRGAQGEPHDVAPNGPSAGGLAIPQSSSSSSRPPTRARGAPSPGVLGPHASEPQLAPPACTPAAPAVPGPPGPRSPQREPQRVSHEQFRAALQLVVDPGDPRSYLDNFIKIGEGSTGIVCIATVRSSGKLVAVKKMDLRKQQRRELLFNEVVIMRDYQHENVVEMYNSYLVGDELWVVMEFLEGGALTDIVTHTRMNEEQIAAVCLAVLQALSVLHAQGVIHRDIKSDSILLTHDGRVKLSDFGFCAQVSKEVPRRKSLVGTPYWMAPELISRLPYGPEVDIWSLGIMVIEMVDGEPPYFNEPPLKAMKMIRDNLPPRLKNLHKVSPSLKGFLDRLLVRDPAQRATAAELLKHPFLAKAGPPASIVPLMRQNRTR

[3] = target: CHEK2 (Homo sapiens, UniProt O96017); test: Inhibition of recombinant human full-length His-tagged CHEK2 expressed in baculovirus expression system at 25 uM using FRET-labeled Ser/Thr 07 peptide as substrate measured after 1 hr by Z'-lyte assay relative to control; settings: probe FRET-labeled Ser/Thr 07 peptide
Sequence of CHEK2 (O96017 whole entry): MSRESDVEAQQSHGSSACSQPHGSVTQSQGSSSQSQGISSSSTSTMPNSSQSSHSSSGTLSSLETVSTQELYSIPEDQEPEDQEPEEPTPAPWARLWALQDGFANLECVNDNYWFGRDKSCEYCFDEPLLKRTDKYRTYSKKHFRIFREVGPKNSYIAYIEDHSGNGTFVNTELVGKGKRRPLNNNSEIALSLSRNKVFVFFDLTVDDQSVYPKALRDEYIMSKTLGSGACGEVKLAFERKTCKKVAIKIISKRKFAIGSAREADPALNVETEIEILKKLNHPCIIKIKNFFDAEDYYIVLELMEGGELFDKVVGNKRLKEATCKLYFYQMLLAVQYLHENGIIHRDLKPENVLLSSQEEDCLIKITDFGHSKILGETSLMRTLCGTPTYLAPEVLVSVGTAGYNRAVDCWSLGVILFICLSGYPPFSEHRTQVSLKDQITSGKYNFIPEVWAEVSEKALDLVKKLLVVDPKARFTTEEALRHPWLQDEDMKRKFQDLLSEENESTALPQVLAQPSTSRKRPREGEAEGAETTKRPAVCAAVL

[4] = target: PDK1 (Homo sapiens, UniProt Q15118); test: Inhibition of recombinant human full-length His-tagged PDK1 expressed in baculovirus expression system at 25 uM using FRET-labeled Ser/Thr 07 peptide as substrate measured after 1 hr by Z'-lyte assay relative to control; settings: probe FRET-labeled Ser/Thr 07 peptide
Sequence of PDK1 (Q15118 whole entry): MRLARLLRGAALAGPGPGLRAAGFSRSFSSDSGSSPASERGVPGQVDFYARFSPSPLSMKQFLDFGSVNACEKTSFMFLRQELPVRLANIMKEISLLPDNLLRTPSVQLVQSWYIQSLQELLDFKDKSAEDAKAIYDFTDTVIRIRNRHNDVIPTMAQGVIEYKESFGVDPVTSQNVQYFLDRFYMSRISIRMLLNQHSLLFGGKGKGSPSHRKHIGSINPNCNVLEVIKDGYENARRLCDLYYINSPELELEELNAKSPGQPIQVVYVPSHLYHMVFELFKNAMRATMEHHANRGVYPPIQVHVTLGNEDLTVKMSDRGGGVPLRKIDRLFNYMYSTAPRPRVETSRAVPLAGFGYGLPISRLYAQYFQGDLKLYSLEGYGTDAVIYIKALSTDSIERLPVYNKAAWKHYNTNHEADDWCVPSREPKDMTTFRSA

[5] = target: MAPKAPK2 (Homo sapiens, UniProt P49137); test: Inhibition of recombinant human full-length His-tagged MAPKAPK2 expressed in Escherichia coli at 25 uM using FRET-labeled Ser/Thr 04 peptide as substrate measured after 1 hr by Z'-lyte assay relative to control; settings: probe FRET-labeled Ser/Thr 04 peptide
Sequence of MAPKAPK2 (P49137 whole entry): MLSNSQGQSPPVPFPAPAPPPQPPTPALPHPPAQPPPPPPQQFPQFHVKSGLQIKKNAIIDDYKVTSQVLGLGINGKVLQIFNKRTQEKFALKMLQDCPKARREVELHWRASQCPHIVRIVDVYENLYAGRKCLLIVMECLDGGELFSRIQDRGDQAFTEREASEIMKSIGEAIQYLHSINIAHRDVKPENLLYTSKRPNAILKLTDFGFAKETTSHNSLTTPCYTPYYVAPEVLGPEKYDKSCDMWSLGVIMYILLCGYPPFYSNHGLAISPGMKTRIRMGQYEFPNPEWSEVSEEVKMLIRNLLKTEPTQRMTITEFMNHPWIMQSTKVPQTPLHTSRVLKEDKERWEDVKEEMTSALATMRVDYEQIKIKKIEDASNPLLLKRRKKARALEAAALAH

[6] = target: CSNK1D (Homo sapiens, UniProt P48730); test: Inhibition of recombinant human full-length GST-tagged CSNK1D expressed in baculovirus expression system at 25 uM using FRET-labeled Ser/Thr 11 peptide as substrate measured after 1 hr by Z'-lyte assay relative to control; settings: probe FRET-labeled Ser/Thr 11 peptide
Sequence of CSNK1D (P48730 whole entry, the tested form may be a part): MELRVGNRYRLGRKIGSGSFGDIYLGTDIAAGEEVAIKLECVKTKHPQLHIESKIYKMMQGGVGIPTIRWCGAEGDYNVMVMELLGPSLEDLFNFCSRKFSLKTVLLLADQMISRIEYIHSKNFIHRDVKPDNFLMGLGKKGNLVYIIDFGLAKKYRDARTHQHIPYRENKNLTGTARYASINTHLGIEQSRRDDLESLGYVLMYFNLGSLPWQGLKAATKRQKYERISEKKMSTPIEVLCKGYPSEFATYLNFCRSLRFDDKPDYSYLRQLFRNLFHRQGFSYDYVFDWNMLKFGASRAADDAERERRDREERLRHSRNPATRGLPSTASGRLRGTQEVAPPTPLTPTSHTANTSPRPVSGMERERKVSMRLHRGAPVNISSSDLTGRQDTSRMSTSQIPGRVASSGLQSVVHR

[7] = target: INSR (Homo sapiens, UniProt P06213); test: Inhibition of recombinant human GST-tagged INSR cytoplasmic domain (1011 to 1382 residues) expressed in baculovirus expression system at 25 uM using FRET-labeled Tyr 01 peptide as substrate measured after 1 hr by Z'-lyte assay relative to control; settings: probe FRET-labeled Tyr 01 peptide
[8] = test system: Escherichia coli; test: Antibacterial activity against Escherichia coli DM4100 harboring deltatolC mutant measured after 18 to 20 hrs in presence of permeabilizing agent PMBN by broth microdilution method; format: functional
[9] = target: T2, PRKCZ (Homo sapiens, UniProt Q05513); test: Inhibition of recombinant human full-length untagged PRKCZ expressed in baculovirus expression system at 25 uM using FRET-labeled Ser/Thr 07 peptide as substrate measured after 1 hr by Z'-lyte assay relative to control; settings: probe FRET-labeled Ser/Thr 07 peptide
T2 sequence (Q05513 whole entry): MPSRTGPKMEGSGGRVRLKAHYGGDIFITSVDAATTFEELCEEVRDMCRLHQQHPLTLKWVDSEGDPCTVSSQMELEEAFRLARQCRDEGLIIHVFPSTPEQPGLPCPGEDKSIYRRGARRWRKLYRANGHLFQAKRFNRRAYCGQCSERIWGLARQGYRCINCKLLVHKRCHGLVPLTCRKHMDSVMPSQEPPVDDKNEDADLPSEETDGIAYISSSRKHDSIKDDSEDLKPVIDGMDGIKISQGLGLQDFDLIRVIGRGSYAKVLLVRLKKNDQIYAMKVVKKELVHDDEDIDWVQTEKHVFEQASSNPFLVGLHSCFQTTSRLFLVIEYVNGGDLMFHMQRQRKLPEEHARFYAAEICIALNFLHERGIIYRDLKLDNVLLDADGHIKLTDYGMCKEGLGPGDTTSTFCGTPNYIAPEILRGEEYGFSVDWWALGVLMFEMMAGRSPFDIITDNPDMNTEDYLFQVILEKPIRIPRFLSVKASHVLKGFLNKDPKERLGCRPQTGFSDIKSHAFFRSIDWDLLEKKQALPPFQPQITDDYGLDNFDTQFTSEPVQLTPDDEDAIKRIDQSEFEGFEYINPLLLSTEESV

[10] = target: AKT1 (Homo sapiens, UniProt P31749); test: Inhibition of recombinant human full-length His-tagged AKT1 expressed in baculovirus expression system at 25 uM using FRET-labeled Ser/Thr 05 peptide as substrate measured after 1 hr by Z'-lyte assay relative to control; settings: probe FRET-labeled Ser/Thr 05 peptide
Sequence of AKT1 (P31749 whole entry, the tested form may be a part): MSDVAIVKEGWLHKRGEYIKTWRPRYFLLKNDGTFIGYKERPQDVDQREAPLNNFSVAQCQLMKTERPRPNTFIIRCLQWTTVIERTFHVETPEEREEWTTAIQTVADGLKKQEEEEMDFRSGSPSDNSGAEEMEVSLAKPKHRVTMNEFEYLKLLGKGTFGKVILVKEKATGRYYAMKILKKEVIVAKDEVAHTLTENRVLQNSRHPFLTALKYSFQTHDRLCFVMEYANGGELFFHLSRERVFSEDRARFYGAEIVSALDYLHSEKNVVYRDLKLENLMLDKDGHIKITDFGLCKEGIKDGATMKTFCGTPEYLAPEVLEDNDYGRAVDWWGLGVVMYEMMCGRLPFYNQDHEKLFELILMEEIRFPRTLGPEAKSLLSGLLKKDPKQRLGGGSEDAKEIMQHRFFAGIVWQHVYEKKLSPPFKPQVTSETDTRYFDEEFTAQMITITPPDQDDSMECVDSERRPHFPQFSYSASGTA

[11] = target: FGFR1 (Homo sapiens, UniProt P11362); test: Inhibition of recombinant human His-tagged FGFR1 cytoplasmic domain (308 to 731 residues) expressed in baculovirus expression system at 25 uM using FRET-labeled tyr 04 peptide as substrate measured after 1 hr by Z'-lyte assay relative to control; settings: probe FRET-labeled tyr 04 peptide
[12] = target: ABL1 (Homo sapiens, UniProt P00519); test: Inhibition of full-length recombinant human His-tagged ABL1 cytoplasmic domain expressed in baculovirus expression system at 25 uM using FRET-labeled tyr 02 peptide as substrate measured after 1 hr by Z'-lyte assay relative to control; settings: probe FRET-labeled tyr 02 peptide
Sequence of ABL1 (P00519 whole entry, the tested form may be a part): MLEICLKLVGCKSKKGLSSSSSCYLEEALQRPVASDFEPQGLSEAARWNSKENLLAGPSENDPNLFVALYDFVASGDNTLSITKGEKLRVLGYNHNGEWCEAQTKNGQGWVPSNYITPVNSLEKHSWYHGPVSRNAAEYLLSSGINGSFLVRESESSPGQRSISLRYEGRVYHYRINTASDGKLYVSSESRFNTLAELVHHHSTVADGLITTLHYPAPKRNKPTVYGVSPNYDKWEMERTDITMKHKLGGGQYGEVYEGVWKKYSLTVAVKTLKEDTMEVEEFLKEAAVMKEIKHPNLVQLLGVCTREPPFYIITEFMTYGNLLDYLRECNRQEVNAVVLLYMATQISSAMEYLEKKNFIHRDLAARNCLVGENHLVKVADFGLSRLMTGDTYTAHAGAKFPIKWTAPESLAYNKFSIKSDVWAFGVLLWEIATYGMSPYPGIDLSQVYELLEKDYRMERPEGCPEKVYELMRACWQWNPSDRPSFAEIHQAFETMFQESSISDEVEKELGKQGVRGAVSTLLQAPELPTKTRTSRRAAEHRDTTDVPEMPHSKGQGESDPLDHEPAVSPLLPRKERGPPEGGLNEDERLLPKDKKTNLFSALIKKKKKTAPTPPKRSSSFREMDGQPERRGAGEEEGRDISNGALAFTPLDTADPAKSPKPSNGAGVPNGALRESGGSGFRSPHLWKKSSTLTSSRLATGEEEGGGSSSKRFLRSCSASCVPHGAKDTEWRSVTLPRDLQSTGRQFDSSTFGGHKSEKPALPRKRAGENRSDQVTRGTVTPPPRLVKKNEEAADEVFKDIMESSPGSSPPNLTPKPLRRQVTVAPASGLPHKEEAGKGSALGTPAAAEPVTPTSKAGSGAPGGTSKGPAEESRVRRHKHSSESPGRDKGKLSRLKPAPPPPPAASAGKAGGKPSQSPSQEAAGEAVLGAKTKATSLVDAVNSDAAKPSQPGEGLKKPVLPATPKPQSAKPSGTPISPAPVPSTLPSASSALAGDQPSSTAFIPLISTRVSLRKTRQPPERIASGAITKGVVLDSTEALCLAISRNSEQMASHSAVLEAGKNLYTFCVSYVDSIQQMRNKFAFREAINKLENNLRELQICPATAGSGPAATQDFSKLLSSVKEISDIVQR

[13] = target: MAP4K4 (Homo sapiens, UniProt O95819); test: Inhibition of recombinant human GST-tagged MAP4K4 catalytic domain (1 to 328 residues) expressed in baculovirus expression system at 25 uM using FRET-labeled Ser/Thr 07 peptide as substrate measured after 1 hr by Z'-lyte assay relative to control; settings: probe FRET-labeled Ser/Thr 07 peptide
[14] = target: NTRK1 (Homo sapiens, UniProt P04629); test: Inhibition of recombinant human His-tagged NTRK1 cytoplasmic domain (441 to 796 residues) expressed in baculovirus expression system at 25 uM using FRET-labeled tyr 07 peptide as substrate measured after 1 hr by Z'-lyte assay relative to control; settings: probe FRET-labeled tyr 07 peptide
Sequence of NTRK1 (P04629 whole entry, the tested form may be a part): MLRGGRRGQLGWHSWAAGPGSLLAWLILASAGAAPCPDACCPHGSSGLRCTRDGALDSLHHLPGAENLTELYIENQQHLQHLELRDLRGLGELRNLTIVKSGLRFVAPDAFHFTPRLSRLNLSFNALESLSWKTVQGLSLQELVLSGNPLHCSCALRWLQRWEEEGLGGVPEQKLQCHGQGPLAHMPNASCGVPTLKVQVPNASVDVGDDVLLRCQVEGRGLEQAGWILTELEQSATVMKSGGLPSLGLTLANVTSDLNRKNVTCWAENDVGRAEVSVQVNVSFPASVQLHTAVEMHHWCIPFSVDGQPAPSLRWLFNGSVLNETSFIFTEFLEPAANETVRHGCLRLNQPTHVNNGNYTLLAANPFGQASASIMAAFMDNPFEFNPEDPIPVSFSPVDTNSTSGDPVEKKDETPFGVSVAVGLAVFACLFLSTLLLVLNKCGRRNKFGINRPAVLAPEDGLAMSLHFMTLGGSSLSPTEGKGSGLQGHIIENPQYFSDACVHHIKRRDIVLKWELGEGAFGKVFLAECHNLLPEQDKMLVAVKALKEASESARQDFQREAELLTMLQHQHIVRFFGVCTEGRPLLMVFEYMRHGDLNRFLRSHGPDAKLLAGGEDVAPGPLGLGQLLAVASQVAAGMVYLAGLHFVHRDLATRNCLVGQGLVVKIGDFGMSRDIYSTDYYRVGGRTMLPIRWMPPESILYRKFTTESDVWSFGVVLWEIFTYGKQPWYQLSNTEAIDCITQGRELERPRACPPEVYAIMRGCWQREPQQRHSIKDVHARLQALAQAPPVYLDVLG

Structure (SMILES) | inhibition at 1 h, 25 µM [1] | inhibition at 1 h, 25 µM [2] | inhibition at 1 h, 25 µM [3] | inhibition at 1 h, 25 µM [4] | inhibition at 1 h, 25 µM [5] | inhibition at 1 h, 25 µM [6] | inhibition at 1 h, 25 µM [7] | MIC [8] | inhibition at 1 h, 25 µM [9] | inhibition at 1 h, 25 µM [10] | inhibition at 1 h, 25 µM [11] | inhibition at 1 h, 25 µM [12] | inhibition at 1 h, 25 µM [13] | inhibition at 1 h, 25 µM [14]
CC(C)COc1cccc(Cl)c1-c1cc2cnc(N)nc2nc1N1C[C@@H]2[C@@H](N)[C@@H]2C1 | 42% | 23% | 67% | 0% | 21% | 3% | 3% | 0.015 µg/mL | -8% | 7% | 60% | 30% | 24% | 40%
Nc1ncc2cc(-c3c(Br)cccc3Br)c(N)nc2n1 | -1% | 20% | 13% | 3% | 10% | 16% | 6% | 0.12 µg/mL | 0% | 4% | 78% | 97% | 52% | 47%
Nc1ncc2cc(-c3c(Cl)cccc3-c3cccnc3)c(N3C[C@@H]4[C@@H](N)[C@@H]4C3)nc2n1 | 28% | 25% | 20% | 0% | 26% | 3% | 3% | 0.008 µg/mL | 5% | 6% | 57% | 38% | 21% | 47%
